Reference: patent US12146185B2, “Genetic markers for enhancing efficacy of antipsychotic treatment with iloperidone” (Vanda Pharmaceuticals Inc., priority 2018, dated 2024)

Tested on: schizophrenia patients
Assay: Genome-wide association study of iloperidone efficacy (PANSS-T) in a randomized, double-blind, placebo- and ziprasidone-controlled 28-day study
Assay type: in vivo, human
Conditions: for Genotype associated with lower treatment effect: PANSS-T
Experimental: A genome-wide association study (GWAS) is performed to improve understanding of the pharmacogenomic basis of response to iloperidone treatment of schizophrenia patients. In the GWAS, genotypes of 205 patients are utilized to evaluate treatment with iloperidone. Linear regression is used to directly test the association between single nucleotide polymorphisms (SNPs) and PANSS-T (day 28), correcting for essential covariates including principal components.
Patients 18-65 years of age with diagnoses of schizophrenia according to the Diagnostic and Statistical Manual of Mental Disorders, 4th Edition are eligible to participate in a randomized, double-blind, placebo- and ziprasidione-controlled, 28-day study of the efficacy and safety of iloperidone. Patients are randomly assigned to iloperidone 12 mg bid, ziprasidone 80 mg bid (active control), or placebo. The primary efficacy variable is change from baseline to the last scheduled observation in PANSS-T using the data from the short-term, double-blind phase. A secondary objective is to identify genetic markers predictive of response to iloperidone. Blood samples are collected, and DNA is extracted from patients who consented to the optional GWAS.
Three analyses of the PANSS-T are conducted: 1) A two-step approach where samples are randomly split into 2 groups of iloperidone-treated patients used to discover SNPs associated with change in PANSS-T (Discovery phase) and a second group to confirm the 100 most significant SNPs (Confirmatory phase). 2) A one-step approach using the Last Observation Carried Forward (LOCF) PANSS-T data of all iloperidone-treated patients. For each SNP, the most parsimonious genetic model (e.g., homozygous for one allele v. all other genotypes [i.e., AA v. AB and BB], heterozygous v. homozygous [i.e., AB v. AA and BB]) was established with respect to iloperidone efficacy using a one-way analysis of variance (ANOVA). 3) A Mixed-effects Model Repeated Measures (MMRM) analysis was subsequently conducted using the best genetic model of each SNP in the MMRM model. MMRM analyses were also conducted with the PANSS subscales PANSS-P, PANSS-N, and PANSS-GP.
The SNPs with a statistically significant association in all 3 analyses of PANSS-T, as well as the best of each analysis are considered significant findings and are listed below in Table 3.
A logistic regression is conducted based on binary cutoffs at PANSS-T≥30 and on the top ends of the distribution logistic model, splitting the data set into two groups: robust responders (i.e., responders having PANSS_T change≥30) and weak responders (i.e., responders having PANSS-T change<20). A significant GRM8 signal is observed in allelic tests conducted, that is, linear association is observed with PANSS-T day 28, logistic model with tot change>=30 vs weak (<20) and logistic association with high and low PANSS-T.

COc1cc(C(C)=O)ccc1OCCCN1CCC(c2noc3cc(F)ccc23)CC1 [iloperidone, 1-[4-[3-[4-(6-fluoro-1,2-benzisoxazol-3-yl)-1-piperidinyl]propoxy]-3-methoxyphenyl]ethanone]
Genotype associated with lower treatment effect (GRIP1 rs11176436): nonTT
Genotype associated with lower treatment effect (GRM8 rs2299503): nonAA
Genotype associated with lower treatment effect (GRM8 rs11763603): nonCC
Genotype associated with lower treatment effect (GRM8 rs13222700): nonTT
Genotype associated with lower treatment effect (NRXN3 rs17109739): nonCC
Genotype associated with lower treatment effect (NTRK2 rs7049108): nonGG
Genotype associated with lower treatment effect (SHANK2 rs579298): nonTT
iloperidone treatment effect as measured by PANSS-T by rs13222700 genotype (TT (homozygous minor allele) vs GT or GG, iloperidone 12 mg bid, PANSS-T day 28, FIG. 1): significantly higher treatment effect
iloperidone treatment effect as measured by PANSS-T change by rs13222700 genotype (TT vs GT or GG, iloperidone 12 mg bid, FIG. 3): significantly larger change in PANSS-T score
P of association of GRM8 variant rs13222700 with iloperidone efficacy (top locus of association analyses, chromosome 7): < 1×10^−5
